PMC12655637, “Design, Synthesis, and Mechanistic Study of Novel Ciprofloxacin/Thiazole Chalcone Hybrids as Potential Anticancer Agents” (Pharmaceuticals, 2025)

Assays:
SR = test: NCI-60 screening, one-dose (10 µM) and five-dose, SRB; type: cell-based, human; conditions: 10 μM, Leukemia
MDA-MB-435 = test: as above; type: cell-based; conditions: Homo sapiens, MDA-MB-435, read-out: Growth percentage, 10 μM; MDA-MB-435, Melanoma
NCI-H522 = test: as above; type: cell-based, human; conditions: Homo sapiens; 10 μM; NCI-H522, Non-Small-Cell Lung Cancer; read-out: Growth percentage
UACC-62 = test: as above; type: cell-based; conditions: Homo sapiens; 10 μM; UACC-62, Melanoma; read-out: Growth percentage
OVCAR-4 = test: as above; type: cell-based, human; conditions: Homo sapiens; 10 μM; OVCAR-4, Ovarian Cancer; read-out: Growth percentage
SK-MEL-28 = test: as above; type: cell-based, human; conditions: Homo sapiens; 10 μM; SK-MEL-28, Melanoma; read-out: Growth percentage
CCRF-CEM = test: as above; type: cell-based, human; conditions: Homo sapiens, 10 μM, Leukemia, read-out: Growth percentage
MOLT-4 = test: as above; type: cell-based, human; conditions: Homo sapiens; 10 μM; MOLT-4, Leukemia; read-out: Growth percentage
K-562 = test: as above; type: cell-based, human; conditions: Homo sapiens, K562, 10 μM; K-562, Leukemia; read-out: Growth percentage
UACC-257 = test: as above; type: cell-based, human; conditions: Homo sapiens; 10 μM; UACC-257, Melanoma; read-out: Growth percentage
M14 = test: as above; type: cell-based, human; conditions: Homo sapiens; 10 μM; M14, Melanoma; read-out: Growth percentage
NCI/ADR-RES = test: as above; type: cell-based, human; conditions: Homo sapiens, 10 μM, Ovarian Cancer, read-out: Growth percentage
U251 = test: as above; type: cell-based, human; conditions: Homo sapiens, U-251; 10 μM; U251, CNS Cancer; read-out: Growth percentage
SF-268 = test: as above; type: cell-based, human; conditions: Homo sapiens; 10 μM; SF-268, CNS Cancer; read-out: Growth percentage
OVCAR-8 = test: as above; type: cell-based, human; conditions: Homo sapiens; 10 μM; OVCAR-8, Ovarian Cancer; read-out: Growth percentage
SF-295 = test: as above; type: cell-based, human; conditions: Homo sapiens; 10 μM; SF-295, CNS Cancer; read-out: Growth percentage
SF-539 = test: as above; type: cell-based, human; conditions: Homo sapiens, SF-539, 10 μM; SF-539, CNS Cancer; read-out: Growth percentage
OVCAR-5 = test: as above; type: cell-based, human; conditions: 10 μM; OVCAR-5, Ovarian Cancer
EKVX = test: as above; type: cell-based, human; conditions: Homo sapiens, 10 μM, Non-Small-Cell Lung Cancer, read-out: Growth percentage
HCT-116 = test: as above; type: cell-based, human; conditions: Homo sapiens
A498 = test: as above; type: cell-based; conditions: Homo sapiens, A498, 10 μM; A498, Renal Cancer; read-out: Growth percentage
SNB-19 = test: as above; type: cell-based; conditions: Homo sapiens, SNB-19, read-out: Growth percentage
SNB-75 = test: as above; type: cell-based, human; conditions: Homo sapiens; 10 μM; SNB-75, CNS Cancer; read-out: Growth percentage
[1] = tested on: 60 human cancer cell lines; test: NCI-60 screening, full panel (mean growth, MID a, ranges over all lines); conditions: Homo sapiens, read-out: Mean growth percentage
BT-549 = test: NCI-60 screening, one-dose (10 µM) and five-dose, SRB; type: cell-based; conditions: Homo sapiens; 10 μM; BT-549, Breast Cancer; read-out: Growth percentage
786−0 = test: as above; type: cell-based, human; conditions: Homo sapiens; 10 μM; 786−0, Renal Cancer; read-out: Growth percentage
MCF7 = test: as above; type: cell-based, human; conditions: Homo sapiens, MCF7, 10 μM; MCF7, Breast Cancer; read-out: Growth percentage
DU-145 = test: as above; type: cell-based, human; conditions: Homo sapiens; 10 μM; DU-145, Prostate Cancer; read-out: Growth percentage
HOP-92 = test: as above; type: cell-based, human; conditions: Homo sapiens; 10 μM; HOP-92, Non-Small-Cell Lung Cancer; read-out: Growth percentage
T-47D = test: as above; type: cell-based, human; conditions: 10 μM, Breast Cancer
HOP-62 = test: as above; type: cell-based, human; conditions: Homo sapiens, HOP-62, 10 μM; HOP-62, Non-Small-Cell Lung Cancer; read-out: Growth percentage

## Cc1nc(SCC(=O)N2CCN(c3cc4c(cc3F)c(=O)c(C(=O)O)cn4C3CC3)CC2)sc1C(=O)/C=C/c1ccc(Cl)cc1 [Compound 4c, (E)-7-(4-(2-((5-(3-(4-Chlorophenyl)acryloyl)-4-methylthiazol-2-yl)thio)acetyl)piperazin-1-yl)-1-cyclopropyl-6-fluoro-4-oxo-1,4-dihydroquinoline-3-carboxylic Acid]
SR
  Growth percentage: 35.32%
MDA-MB-435
  activity at 10 µM: 102%
NCI-H522
  activity at 10 µM: 95.9%
UACC-62
  activity at 10 µM: 94.9%
OVCAR-4
  activity at 10 µM: 107%
SK-MEL-28
  activity at 10 µM: 100%
CCRF-CEM
  activity at 10 µM: 102%
MOLT-4
  activity at 10 µM: 103%
K-562
  activity at 10 µM: 93.1%
UACC-257
  activity at 10 µM: 117%
M14
  activity at 10 µM: 98.7%
NCI/ADR-RES
  activity at 10 µM: 98.9%
U251
  activity at 10 µM: 111%
SF-268
  activity at 10 µM: 180%
OVCAR-8
  activity at 10 µM: 76.3%
SF-295
  activity at 10 µM: 102%
SF-539
  activity at 10 µM: 97.7%
OVCAR-5
  Growth percentage: 100.3%
EKVX
  activity at 10 µM: 103%
HCT-116; HCT-116, 10 μM, HCT-116, Colon Cancer, read-out: Growth percentage
  activity at 10 µM: 61%
HCT-116; colon HCT-116
  IC50: 340 nM
A498
  activity at 10 µM: 119%
SNB-19
  activity at 10 µM: 100%
SNB-75
  activity at 10 µM: 95.6%
[1]
  activity at 10 µM: 103%
BT-549
  activity at 10 µM: 85.9%
786−0
  activity at 10 µM: 96.2%
MCF7
  activity at 10 µM: 52.9%
DU-145
  activity at 10 µM: 178%
HOP-92
  activity at 10 µM: 119%
T-47D
  Growth percentage: 116.3%
HOP-62
  activity at 10 µM: 122%
